Usually EC50 stands for the concentration giving half of the maximal effect.

From patent publication US11472808B2, “Substituted pyrrolo[1,2-c]pyrimidines as hepatitis B antiviral agents” (Enanta Pharmaceuticals, Inc., priority 2019, dated 2022) come the findings set out here.

This assay relates to HBV. Kind of assay: HepAD38 anti-HBV assay: reduction of viral product accumulation (virion DNA qPCR, HBsAg/HBeAg ELISA). The class given is cell-based. The note with it: Hepatitis B virus, 120 h; HepAD38 cells; concentration reducing viral product accumulation by 50% relative to no drug controls; harvest five days after compound addition; read-out: HepAD38 EC50. The protocol: Methods: HepAD38 cells are maintained as previously reported (Ladner et al, Antimicrob. Agents Chemother. 1997, […], 1715). Briefly, cells are passaged upon attaining confluency in DMEM/F12 media in the presence of 10% FBS, Penn/Strep, 250 μg/mL G418, and 1 μg/ml tetracycline. Novel compounds are screened by first washing cells three times with PBS to remove tetracycline, and plating in 96 well plates at 35,000 cells/well. Compounds dissolved in DMSO are then diluted 1:200 into wells containing cells. Five days after compound addition, material is harvested for analysis. For an extended 8 day analysis, cells are plated and treated as described above, but media and compound are refreshed on d2 and d5 post initial treatment.
On harvest day, virion DNA is obtained by lysing with Sidestep Lysis and Stabilization Buffer and then quantified via quantitative real time PCR. Commercially available ELISA kits are used to quantitate the viral proteins HBsAg (Alpco) or HbeAg (US Biological) by following the manufacturer's recommended protocol after diluting samples to match the linear range of their respective assays. Irrespective of readout, compound concentrations that reduce viral product accumulation in the cell lysates or supernatants by 50% relative to no drug controls (EC50) are reported; EC50 ranges are as follows: A<0.1 μM; B 0.1-0.4 μM; C>0.4 μM.

`Fc1ccc([C@@H]2N=C(c3nccs3)N3C[C@@H](Nc4ccccn4)CC3=C2c2ccn(C(F)F)n2)c(Cl)c1` [Example 418]: the EC50 was in the range of 100 to 400 nM.

Turning to `O=C(N[C@H]1CC2=C(c3ccn(C(F)F)n3)[C@H](c3ccc(F)cc3Cl)N=C(c3nccs3)N2C1)N1CC[C@H](O)C1` [Example 224], the concentration giving a half-maximal response (EC50) is less than 100 nM.

`N#CCCCS(=O)(=O)N([C@H]1CC2=C(c3ccn(C(F)F)n3)[C@H](c3ccc(F)cc3Cl)N=C(c3nccs3)N2C1)S(=O)(=O)CCCC#N` [Example 136]: the EC50 lay in the range of 100 to 400 nM.

Take `CCOC(=O)C(NS(=O)(=O)N[C@H]1CC2=C(c3ccn(C(F)F)n3)[C@H](c3ccc(F)cc3Cl)N=C(c3nccs3)N2C1)c1ccccn1` (stereo partly shown) [Example 343]: the EC50 is less than 100 nM.

As for `O=S(=O)(N[C@H]1CC2=C(c3ccn(C(F)F)n3)[C@H](c3ccc(F)cc3Cl)N=C(c3nccs3)N2C1)N1CCCC(F)(F)C1` [Example 278], the EC50 is less than 100 nM.

With `O=C1N(CC#Cc2ccccc2)CCN1[C@H]1CC2=C(c3ccn(C(F)F)n3)[C@H](c3ccc(F)cc3Cl)N=C(c3nccs3)N2C1` [Example 48], the EC50 was greater than 400 nM.

Take `CCOC(=O)N[C@H]1CC2=C(c3ccn(C(F)F)n3)[C@H](c3ccc(F)cc3Cl)N=C(c3nccs3)N2C1` [Example 201]: the EC50 was less than 100 nM.

Take `O=C(O)CC1CCN(CCS(=O)(=O)N[C@H]2CC3=C(c4ccn(C(F)F)n4)[C@H](c4ccc(F)cc4Cl)N=C(c4nccs4)N3C2)CC1` [Example 63]: the EC50 is greater than 400 nM.

On to `CC(C)(C)OC(=O)N1CCN(C(=O)N[C@H]2CC3=C(c4ccn(C(F)F)n4)[C@H](c4ccc(F)cc4Cl)N=C(c4nccs4)N3C2)CC1` [Example 220], for which the EC50 is greater than 400 nM.

On to `COC(=O)N1CCN(S(=O)(=O)N[C@H]2CC3=C(c4ccn(C(F)F)n4)[C@H](c4ccc(F)cc4Cl)N=C(c4nccs4)N3C2)CC1` [Example 152], for which the EC50 is less than 100 nM.

For `O=C(N[C@H]1CC2=C(c3ccn(C(F)F)n3)[C@H](c3ccc(F)cc3Cl)N=C(c3nccs3)N2C1)N1CC[C@@H](O)C1` [Example 225], the EC50 is less than 100 nM.

Regarding `C[C@H](NC(=O)CC1(S(=O)(=O)N[C@H]2CC3=C(c4ccn(C(F)F)n4)[C@H](c4ccc(F)cc4Cl)N=C(c4nccs4)N3C2)CC1)c1ccccn1` [Example 374], the EC50 was less than 100 nM.

`O=S(=O)(Nc1ccncc1)N[C@H]1CC2=C(c3ccn(C(F)F)n3)[C@H](c3ccc(F)cc3Cl)N=C(c3nccs3)N2C1` [Example 83]: the EC50 was in the range of 100 to 400 nM.

For `CCOC(=O)/C=C/[C@]1(F)CC2=C(c3ccn(C(F)F)n3)[C@H](c3ccc(F)cc3Cl)N=C(c3nccs3)N2C1` [Example 172], the EC50 was in the range of 100 to 400 nM.

For `CNC(=O)OCC1(F)CC2=C(c3ccn(C(F)F)n3)[C@H](c3ccc(F)cc3Cl)N=C(c3nccs3)N2C1` (stereo partly shown) [Example 178], the EC50 is less than 100 nM.

Take `O=C(Cc1ccccn1)N[C@H]1CC2=C(c3ccn(C(F)F)n3)[C@H](c3ccc(F)cc3Cl)N=C(c3nccs3)N2C1` [Example 326]: the EC50 fell in the range of 100 to 400 nM.

Regarding `O=C(O)[C@H]1C[C@H](S(=O)(=O)N[C@H]2CC3=C(c4ccn(C(F)F)n4)[C@H](c4ccc(F)cc4Cl)N=C(c4nccs4)N3C2)C1` [Example 16], the EC50 was greater than 400 nM.

For the compound `COC(=O)c1cccc(S(=O)(=O)NC[C@]2(O)CC3=C(c4ccn(C(F)F)n4)[C@H](c4ccc(F)cc4Cl)N=C(c4nccs4)N3C2)c1` [Example 130], the EC50 was 100 to 400 nM.

In the case of `O=C(O)CCCCS(=O)(=O)N[C@H]1CC2=C(c3ccn(C(F)F)n3)[C@H](c3ccc(F)cc3Cl)N=C(c3nccs3)N2C1` [Example 19], the EC50 was in the range of 100 to 400 nM.

On to `O=C(O)c1ccc(C#CCN2CCN([C@H]3CC4=C(c5ccn(C(F)F)n5)[C@H](c5ccc(F)cc5Cl)N=C(c5nccs5)N4C3)C2=O)cc1` [Example 43], for which the EC50 was greater than 400 nM.

On to `COC(=O)N[C@H]1CC2=C(c3ccn(C(F)F)n3)[C@H](c3ccc(F)cc3Cl)N=C(c3nccs3)N2C1` [Example 198], for which the EC50 was less than 100 nM.

For `COC(=O)Cc1ccc(S(=O)(=O)N[C@H]2CC3=C(c4ccn(C(F)F)n4)[C@H](c4ccc(F)cc4Cl)N=C(c4nccs4)N3C2)cc1` [Example 35], the EC50 is less than 100 nM.

Consider `O=C(CC1(S(=O)(=O)N[C@H]2CC3=C(c4ccn(C(F)F)n4)[C@H](c4ccc(F)cc4Cl)N=C(c4nccs4)N3C2)CC1)NCc1ccccn1` [Example 372], for which the EC50 was less than 100 nM.

In the case of `CCOC(=O)CC(NS(=O)(=O)N[C@H]1CC2=C(c3ccn(C(F)F)n3)[C@H](c3ccc(F)cc3Cl)N=C(c3nccs3)N2C1)c1ccccn1` (stereo partly shown) [Example 355], the EC50 is 100 to 400 nM.

In the case of `O=C(O)[C@H]1C[C@@H](S(=O)(=O)N[C@H]2CC3=C(c4ccn(C(F)F)n4)[C@H](c4ccc(F)cc4Cl)N=C(c4nccs4)N3C2)C1` [Example 17], the EC50 was in the range of 100 to 400 nM.

For `O=C(N[C@H]1CC2=C(c3ccn(C(F)F)n3)[C@H](c3ccc(F)cc3Cl)N=C(c3nccs3)N2C1)N1CCS(=O)(=O)CC1` [Example 219], the EC50 lay within 100 to 400 nM.

In the case of `O=C(O)c1ccc(Cl)c(S(=O)(=O)N[C@H]2CC3=C(c4ccn(C(F)F)n4)[C@H](c4ccc(F)cc4Cl)N=C(c4nccs4)N3C2)c1` [Example 27], the EC50 fell in the range of 100 to 400 nM.

In the case of `O=C(N[C@H]1CC2=C(c3ccn(C(F)F)n3)[C@H](c3ccc(F)cc3Cl)N=C(c3nccs3)N2C1)O[C@H]1C[C@H](O)C1` [Example 255], the EC50 fell in the range of 100 to 400 nM.

On to `O=C(N[C@H]1CC2=C(c3ccn(C(F)F)n3)[C@H](c3ccc(F)cc3Cl)N=C(c3nccs3)N2C1)N1CCC(O)(c2ccccc2)CC1` [Example 242], for which the EC50 lay in the range of 100 to 400 nM.

Turning to `O=S(=O)(N[C@H]1CC2=C(c3ccn(C(F)F)n3)[C@H](c3ccc(F)cc3Cl)N=C(c3nccs3)N2C1)[C@H]1CC[C@](O)(c2cccnc2)CC1` [Example 105], the EC50 is less than 100 nM.

Take `O=S(=O)(N[C@H]1CC2=C(c3ccn(C(F)F)n3)[C@H](c3ccc(F)cc3Cl)N=C(c3nccs3)N2C1)c1ccc(F)cc1` [Example 392]: the EC50 was in the range of 100 to 400 nM.

With `CS(=O)(=O)c1ccc(NS(=O)(=O)N[C@H]2CC3=C(c4ccn(C(F)F)n4)[C@H](c4ccc(F)cc4Cl)N=C(c4nccs4)N3C2)cc1` [Example 347], the EC50 was 100 to 400 nM.

As for `O=C1NCCN1[C@H]1CC2=C(c3ccn(C(F)F)n3)[C@H](c3ccc(F)cc3Cl)N=C(c3nccs3)N2C1` [Example 40], the EC50 fell in the range of 100 to 400 nM.

As to `O=S(=O)(N[C@H]1CC2=C(c3ccn(C(F)F)n3)[C@H](c3ccc(F)cc3Cl)N=C(c3nccs3)N2C1)c1ccc([C@H]2CC[C@@](O)(c3ccccn3)CC2)cc1` [Example 384], the EC50 is less than 100 nM.

For `CSC[C@@]1(O)CC2=C(c3ccn(C(F)F)n3)[C@H](c3ccc(F)cc3Cl)N=C(c3nccs3)N2C1` [Example 142], the EC50 is greater than 400 nM.

Take `Fc1ccc([C@@H]2N=C(c3nccs3)N3C[C@@H](Nc4ccc(-c5ccccn5)cc4)CC3=C2c2ccn(C(F)F)n2)c(Cl)c1` [Example 330]: the EC50 was 100 to 400 nM.

As for `O=S(=O)(N[C@H]1CC2=C(c3ccn(C(F)F)n3)[C@H](c3ccc(F)cc3Cl)N=C(c3nccs3)N2C1)c1cc(F)cc(F)c1` [Example 407], the concentration giving a half-maximal response (EC50) was in the range of 100 to 400 nM.

With `OCCOC[C@]1(O)CC2=C(c3ccn(C(F)F)n3)[C@H](c3ccc(F)cc3Cl)N=C(c3nccs3)N2C1` [Example 110], the EC50 lay in the range of 100 to 400 nM.

Regarding `O=S(=O)(NCc1cnccn1)N[C@H]1CC2=C(c3ccn(C(F)F)n3)[C@H](c3ccc(F)cc3Cl)N=C(c3nccs3)N2C1` [Example 317], the EC50 is less than 100 nM.

As for `C=CCNC[C@]1(O)CC2=C(c3ccn(C(F)F)n3)[C@H](c3ccc(F)cc3Cl)N=C(c3nccs3)N2C1` [Example 117], the EC50 is greater than 400 nM.

With `COC(=O)[C@H]1C[C@@H](S(=O)(=O)N[C@H]2CC3=C(c4ccn(C(F)F)n4)[C@H](c4ccc(F)cc4Cl)N=C(c4nccs4)N3C2)C1` [Example 15], the EC50 is 100 to 400 nM.

For the compound `O=S(=O)(N[C@H]1CC2=C(c3ccn(C(F)F)n3)[C@H](c3ccc(F)cc3Cl)N=C(c3nccs3)N2C1)N1CCC[C@H]1C(F)(F)F` [Example 281], the EC50 was less than 100 nM.

In the case of `CS(=O)(=O)NC[C@]1(N)CC2=C(c3ccn(C(F)F)n3)[C@H](c3ccc(F)cc3Cl)N=C(c3nccs3)N2C1` [Example 146], the EC50 is greater than 400 nM.

In the case of `O=S(=O)(N[C@H]1CC2=C(c3ccn(C(F)F)n3)[C@H](c3ccc(F)cc3Cl)N=C(c3nccs3)N2C1)c1ccc(C(F)(F)F)cc1` [Example 406], the EC50 was less than 100 nM.

In the case of `COC(=O)c1ccc(Cl)c(S(=O)(=O)N[C@H]2CC3=C(c4ccn(C(F)F)n4)[C@H](c4ccc(F)cc4Cl)N=C(c4nccs4)N3C2)c1` [Example 24], the EC50 lay within 100 to 400 nM.

Consider `OCCOC[C@@]1(O)CC2=C(c3ccn(C(F)F)n3)[C@H](c3ccc(F)cc3Cl)N=C(c3nccs3)N2C1` [Example 111], for which the EC50 is greater than 400 nM.

Take `O=S1(=O)CCCN1[C@H]1CC2=C(c3ccn(C(F)F)n3)[C@H](c3ccc(F)cc3Cl)N=C(c3nccs3)N2C1` [Example 375]: the EC50 was in the range of 100 to 400 nM.

Take `CS(=O)(=O)NCCS(=O)(=O)N[C@H]1CC2=C(c3ccn(C(F)F)n3)[C@H](c3ccc(F)cc3Cl)N=C(c3nccs3)N2C1` [Example 344]: the EC50 was in the range of 100 to 400 nM.

As to `O=S(=O)(N[C@H]1CC2=C(c3ccn(C(F)F)n3)[C@H](c3ccc(F)cc3Cl)N=C(c3nccs3)N2C1)NC1(Cc2ccccn2)CC1` [Example 325], the EC50 is 100 to 400 nM.
